Assay results taken from PMC11489133, “Obicetrapib exhibits favorable physiochemical and pharmacokinetic properties compared to previous cholesteryl ester transfer protein inhibitors: An integrated summary of results from non‐human primate studies and clinical trials” (Pharmacology Research & Perspectives, 2024).
“And” between values parts separate entries of the source, which are not always exact repeats. Identical values can stand only once. Like-named read-outs stand apart in the source and are kept apart here.

Key:
[1] = disposition of 14C-obicetrapib after a single oral dose of 20 mg/kg in the cynomolgus monkey; assay type: in vivo; details: urine and feces samples
Description: Figure 1 illustrates the metabolism of obicetrapib (TA‐8995) in the cynomolgus monkey. A study was conducted to examine the disposition of ^14C‐obicetrapib following oral administration in the cynomolgus monkey (n = 3 males) at a dose level of 20 mg/kg. […] The monkeys each received a single oral dose of ^14C‐obicetrapib by gavage at a target dose level of 20 mg/kg and a nominal dose volume of 5 mL/kg. […] After the final blood collection, radioactivity was measured in the blood and plasma by liquid scintillation counting. The profile of M1 in selected samples of plasma was determined by high‐performance liquid chromatography (HPLC) (following extraction of the matrix, where relevant) and selected M1 were identified by liquid chromatography mass spectrometry. In plasma, unchanged obicetrapib and a M1 were the principal radioactive components and represented at least 66% of the chromatographic radioactivity in any single profile.

[2] = absorption, metabolism and excretion study of a single 10 mg dose of 14C-obicetrapib (NCT02408055, TA‐8995‐07); assay type: in vivo, humans
Description: Figure 2 illustrates the obicetrapib (TA‐8995) M1 detected above the LLOQ (>1% radioactivity) in human plasma expressed as the percent radioactivity profiled. A study (NCT02408055) was conducted in healthy male participants (n = 6) to assess the absorption, metabolism, and excretion of a single dose of 10 mg of ^14C‐obicetrapib (TA‐8995‐07 CSR, NewAmsterdam Pharma). One of the objectives of the study was to determine the chemical structure of ^14C‐obicetrapib M1 that represent ≥10% of total radioactivity in plasma. The participants received 10 mL ^14C‐obicetrapib oral suspension, containing 10 mg and 100 μCi of ^14C‐obicetrapib in the fasted state. Clinical samples for analysis were selected based upon the levels of radioactivity present as determined by liquid scintillation counting and were stored at below −50°C (nominally −80°C) when not in use. Plasma samples from the participants were sequentially extracted with acetonitrile at five time points. The resulting extracts were concentrated by evaporation and reconstituted in mobile phase HPLC prior to analysis by radio‐HPLC. All samples were analyzed by liquid scintillation counting to evaluate the recovery of radioactivity. The profiles of the radiolabeled components in each sample of plasma were determined by HPLC analysis with off‐line radio‐detection. Selected samples from each matrix were then further analyzed by high‐resolution mass spectrometry to investigate the identity of M1. In plasma, the predominant metabolite component was unchanged obicetrapib (~79% of total drug‐related exposure), and the most abundant plasma M1 were M1 and P9 of which each accounted for ~4% of total exposure (Figure 2). No significant differences in the metabolite profiles were observed across the samples obtained from the six participants (TA‐8995‐07 CSR, NewAmsterdam Pharma).

[3] = pH 7.4; cited from earlier work
[4] = cited from earlier work
[5] = TULIP Phase II trial, plasma concentrations of obicetrapib; assay type: in vivo, humans; details: any of the participants
[6] = Phase I food effect trial on obicetrapib bioavailability (TA‐8995‐09); assay type: in vivo, humans; details: for Cmax / AUC / t max: both sexes, human, plasma, oral, 10 mg; for t max: read-out: t max, median (minimum, maximum)
Description: The PK parameters and the effect of food on the bioavailability of obicetrapib in humans have been examined in both Phase I[9] (TA‐8995‐09 CSR, NewAmsterdam Pharma) and Phase II trials.[10], [11], [12], [13] The trials were performed in accordance with the Declaration of Helsinki, Good Clinical Practice Guidelines, and applicable regulatory requirements. Approval was obtained from the relevant ethical review boards for each site. All volunteers provided written informed consent prior to participation. PK parameters were determined using WinNonlin software, version 4.1 or higher (Pharsight/Certara Corporation, USA). Concentrations of obicetrapib were summarized for each treatment group using descriptive statistics.
This was an open‐label, randomized, two‐sequence, two‐period, two‐treatment crossover study conducted to evaluate the effect of food on the bioavailability of 10 mg obicetrapib. Thirty healthy adult males and females were randomized to treatment and data were available for 23 participants. In Treatment Period I, participants received a single 10 mg dose of obicetrapib after an overnight fast. In Treatment Period II, participants received a single 10 mg dose of obicetrapib at 30 min following the start of a standardized high‐fat, high‐calorie breakfast that was preceded by an overnight fast. Blood samples were collected at pre‐dose and at intervals over 336 h after dosing in each treatment period. The interval between doses was 49 days. The half‐life of obicetrapib was expected to be less than 6 days; therefore, it was anticipated that 49 days would be well beyond five half‐lives and an adequate washout period (TA‐8995‐09 CSR, NewAmsterdam Pharma).

[7] = Phase II trials of obicetrapib, integrated summary of post-treatment elimination; assay type: in vivo, humans
Text: The Phase II trials of obicetrapib described herein include the TA‐8995: Its Use in Patients with Mild Dyslipidaemia (TULIP)[10] study, the Randomized Study of Obicetrapib as an Adjunct to Statin Therapy (ROSE),[11] the Study to Evaluate the Effect of Obicetrapib in Combination with Ezetimibe as an Adjunct to High‐Intensity Statin Therapy (ROSE2),[12] and A Dose‐Finding Study in Japanese Patients to Evaluate the Effect of Obicetrapib as an Adjunct to Stable Statin Therapy (TA‐8995‐203).[13]

[8] = set-up: method as in PMID 24628035; details: cited from earlier work; for t ½ (terminal half‐life) / AUC (0–24 h) / C max / t max: fasting; for t ½ (terminal half‐life): arithmetic mean (CV%); for AUC (0–24 h) / C max: geometric mean (CV%); for C max: healthy White males

CCOC(=O)N1c2ccc(C(F)(F)F)cc2C(N(Cc2cc(C(F)(F)F)cc(C(F)(F)F)c2)c2ncc(OCCCC(=O)O)cn2)CC1CC (centres unmarked) [Obicetrapib]
metabolism of obicetrapib [1]: extensive
percent radioactivity profiled in human plasma ([2]; n = 6 individuals, 24 h AUC pools, Figure 2): up to 92.8%
share of total drug‐related exposure in plasma ([2]; single 10 mg 14C‐obicetrapib, fasted, healthy males n = 6): ~ 79%
cLogDpH7.4 [3]: 4.9
PSA [4]: 105 Å^2
obicetrapib in urine [5]: not detected
increase of peak and overall systemic exposure (AUC, C max) under fed compared to fasted conditions ([6]; 10 mg dose, high‐fat meal): ~ 1.6 fold and 1.6 fold
least‐squares geometric mean of fed versus fasted ratio, AUC0‐t ([6]; 10 mg single dose): 154.9%
least‐squares geometric mean of fed versus fasted ratio, AUC0‐∞ ([6]; 10 mg single dose): 155.4%
least‐squares geometric mean of fed versus fasted ratio, C max ([6]; 10 mg single dose): 158.5%
AUC(0‐t), LSGM Ratio (90% CI) (Fed vs. Fasted) ([6]; 10 mg single dose, n = 23): 155 (130, 184)
AUC(0‐∞), LSGM Ratio (90% CI) (Fed vs. Fasted) ([6]; 10 mg single dose, n = 23): 155 (129, 187)
C max, LSGM Ratio (90% CI) (Fed vs. Fasted) ([6]; 10 mg single dose, n = 23): 159 (126, 199)
Cmax ([6]; 10 mg single dose, Fasted, n = 23): 140 ng/mL
AUC ([6]; 10 mg single dose, Fasted, n = 23, read-out: AUC(0‐t), LS GM (converted)): 12400 ng·h/mL
AUC ([6]; 10 mg single dose, Fasted, n = 23, read-out: AUC(0‐∞), LS GM (converted)): 16600 ng·h/mL
Cmax ([6]; 10 mg single dose, Fed (high‐fat, high‐calorie breakfast), n = 23): 222 ng/mL
AUC ([6]; 10 mg single dose, Fed, n = 23, read-out: AUC(0‐t), LS GM (converted)): 19200 ng·h/mL
AUC ([6]; 10 mg single dose, Fed, n = 23, read-out: AUC(0‐∞), LS GM (converted)): 25800 ng·h/mL
t max ([6]; 10 mg single dose, fasted): 5 h
t max ([6]; 10 mg single dose, fed): 5.5 h
decrease of plasma levels of obicetrapib ([7]; 15 weeks post‐treatment): 98.5%
decrease of plasma levels of obicetrapib ([7]; four weeks post‐treatment): 92.2%
effect of food on the AUC or C max ([8]; 50 mg dose, fed versus fasted, n = 5 White healthy males): did not have a clinically relevant effect
effects of food, age, gender, or ethnicity on the PK parameters ([8]; PK assessment results of the other groups): no clinically relevant effects
t ½ (terminal half‐life) ([8]; single dose 5 mg): 125 (22%) h
AUC (0–24 h) ([8]; single dose 5 mg): 1816 (34%) ng·h/mL
C max ([8]; single dose 5 mg): 138 (33%) ng/mL
t max ([8]; single dose 5 mg, median (minimum, maximum)): 3 (2, 3) h
t max ([8]; single dose 5 mg, median (minimum, maximum), listed as obicetrapib): ≤ 3 h
t ½ (terminal half‐life) ([8]; single dose 10 mg): 124 (20%) h
AUC (0–24 h) ([8]; single dose 10 mg): 3580 (21%) ng·h/mL
C max ([8]; single dose 10 mg): 251 (23%) ng/mL
t max ([8]; single dose 10 mg, median (minimum, maximum)): 3 (2, 5) h
t max ([8]; single dose 10 mg, median (minimum, maximum), listed as obicetrapib): ≤ 3 h
t ½ (terminal half‐life) ([8]; single dose 25 mg): 162 (19%) h
AUC (0–24 h) ([8]; single dose 25 mg): 5952 (26%) ng·h/mL
C max ([8]; single dose 25 mg): 467 (30%) ng/mL
t max ([8]; single dose 25 mg, median (minimum, maximum)): 3.5 (2, 6) h
t max ([8]; single doses 50–150 mg): 4 h
obicetrapib in urine ([8]; single doses, any participant): not detected
